Experimental data as given in the supplement of paper PMC12317010.
Counter-ions that a name gives are not always drawn.

Experiment: collision cross section in nitrogen (drift tube, single-field); higher = larger gas-phase ion size
[1] = ion type: [M-H], ion source: ESI, ion mode: Negative
[2] = ion type: [M+Na], ion source: ESI, ion mode: Positive
[3] = ion type: [M+H], ion source: APCI, ion mode: Positive
[4] = ion type: [M+H], ion source: ESI, ion mode: Positive
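Further: chemical standards at 10 µM analysed by drift tube IMS-QTOF MS in about 3.95 torr nitrogen, mean of duplicate injections differing ≤1%, mass error below 10 ppm.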

Structure (SMILES) | collision cross section in nitrogen [1] | collision cross section in nitrogen [2] | collision cross section in nitrogen [3] | collision cross section in nitrogen [4] | also measured
O=S(=O)(O)c1ccc(N=Nc2cc(S(=O)(=O)O)c3ccccc3c2O)c2ccccc12 [Azorubine] | 211.8 Å² | – | – | – | –
O=C(c1ccccc1)c1ccc(Cl)cc1 [4-Chlorobenzophenone] | – | 151.1 Å² | – | – | –
CCN(CCN)c1cccc(C)c1 [N-Ethyl-N-(3-methylphenyl)ethane-1,2-diamine] | – | – | 139.5 Å² | 140.5 Å² | –
O=C(Oc1ccccc1)c1ccc(O)cc1 [Phenylparaben] | 150.3 Å² | – | – | – | –
CC(C)(C)NC(=O)[C@@H]1CN(Cc2cccnc2)CCN1C[C@@H](O)C[C@@H](Cc1ccccc1)C(=O)N[C@H]1c2ccccc2C[C@H]1O [Indinavir sulfate] | – | 246.1 Å² | 262.9 Å² | 262.3 Å² | –
O=C(O)CCc1ccccc1 [Hydrocinnamic acid] | 139 Å² | – | – | – | –
OCCOCCN1CCN(C2=Nc3ccccc3Sc3ccccc32)CC1 [Quetiapine fumarate] | 183.5 Å² | 188.6 Å² | 192.1 Å² | 192.3 Å² | –
Cc1ccc(O)cn1 [6-Methyl-3-hydroxypyridine] | 120.4 Å² | – | 118.1 Å² | 119.4 Å² | –
CSC1=N[C@@](C)(c2ccccc2)C(=O)N1Nc1ccccc1 [Fenamidone] | 174.6 Å² | – | 172.6 Å² | 172.7 Å² | –
Cc1c(C2(c3cc(Br)c(O)c(Br)c3C)OS(=O)(=O)c3ccccc32)cc(Br)c(O)c1Br [Bromcresol green] | 217 Å² | – | – | – | –
N=C(NCCCCCCNC(=N)NC(=N)Nc1ccc(Cl)cc1)NC(=N)Nc1ccc(Cl)cc1 [Chlorhexidine] | – | 226.5 Å² | 222.9 Å² | 222.4 Å² | –
Nc1ccc(N=Nc2ccc(-c3ccc(N=Nc4c(S(=O)(=O)O)cc5cc(S(=O)(=O)O)c(N=Nc6ccccc6)c(O)c5c4N)cc3)cc2)c(N)c1 [C.I. Direct Black 38] | 304.4 Å² | – | – | 311 Å² | –
C=C[C@@]1(C)CC(=O)[C@]2(O)[C@@]3(C)[C@@H](O)CCC(C)(C)[C@@H]3[C@H](O)[C@H](OC(C)=O)[C@@]2(C)O1 [Forskolin] | – | 194.3 Å² | – | – | –
CCN(CC)CCNc1ccc(CNC=O)c2sc3ccc(OC)cc3c(=O)c12 | – | 198.8 Å² | 196.9 Å² | 197 Å² | –
CC1(C)C(C(=O)OC(C#N)c2cccc(Oc3ccccc3)c2)C1(C)C (centres undefined) [Fenpropathrin] | – | 186 Å² | – | – | –
Cc1[nH]c(=O)n(C(C)(C)C)c(=O)c1Cl [Terbacil] | 144.9 Å² | – | – | – | –
CC(C)c1cccc(O)c1 [3-Isopropylphenol] | 132.9 Å² | – | – | – | –
Cc1ccc(OP(=O)(Oc2ccc(C)cc2C)Oc2ccc(C)cc2C)c(C)c1 [Trixylyl phosphate] | – | 212.6 Å² | 204.2 Å² | 203.1 Å² | –
Nc1ccc(N)c(Cl)c1 [2-Chloro-1,4-diaminobenzene sulfate (1:1)] | – | – | – | 131.4 Å² | –
O=[N+]([O-])c1ccc2[nH]c(S)nc2c1 [5-Nitro-2-mercaptobenzimidazole] | 133.6 Å² | – | – | – | –
CCOc1ccc(NC(=O)CC(C)=O)cc1 [N-(4-Ethoxyphenyl)-3-oxobutanamide] | 155.9 Å² | 167.3 Å² | 154.6 Å² | – | –
O=c1[nH]cc(F)c(=O)[nH]1 [5-Fluorouracil] | 115.4 Å² | – | – | – | –

Structure (SMILES) | collision cross section in nitrogen [1] | collision cross section in nitrogen [2] | collision cross section in nitrogen [3] | collision cross section in nitrogen [4] | also measured
CCCCN1C(=O)[C@@H]([C@H](O)C2CCCCC2)NC(=O)C12CCN(Cc1ccc(Oc3ccc(C(=O)O)cc3)cc1)CC2 [Aplaviroc hydrochloride] | 235.7 Å² | 238.6 Å² | – | 260.4 Å² | –
Nc1ccc2c(S(=O)(=O)O)cccc2c1S(=O)(=O)O [1,5-Naphthalenedisulfonic acid, 2-amino-, sodium salt (1:1)] | 159.4 Å² | – | – | – | –
COc1ccc(C(CN(C)C)C2(O)CCCCC2)cc1 (centres undefined) [Venlafaxine hydrochloride] | – | 177.7 Å² | 170.8 Å² | 170.7 Å² | –
Oc1cc(Cl)c(Cl)cc1Cl [2,4,5-Trichlorophenol] | 128.7 Å² | – | – | – | –
CC(C)C(=O)Nc1ccc([N+](=O)[O-])c(C(F)(F)F)c1 [Flutamide] | 154.9 Å² | – | – | – | –
CC(CCCCN)C(C)(C)N (centres undefined) [Trimethylhexane-1,6-diamine] | – | – | – | 140.4 Å² | –
CCCCCCCCCCCCCCCC[n+]1ccccc1 [Cetylpyridinium chloride] | – | – | – | – | collision cross section in nitrogen (ion source: APCI, ion mode: Positive, ion type: [M]+ (permanent cation)): 193.3 Å²; collision cross section in nitrogen (ion source: ESI, ion mode: Positive, ion type: [M]+ (permanent cation)): 193.7 Å²
CN(C)c1ccc(Cc2ccc(N(C)C)cc2)cc1 [4,4'-Methylenebis(N,N-dimethylaniline)] | – | – | 175.3 Å² | 174.8 Å² | –
CNC1(c2ccccc2Cl)CCCCC1=O (centres undefined) [Ketamine hydrochloride] | – | 158.8 Å² | 149.7 Å² | 149.4 Å² | –
CCCCC(CC)C(=O)O (centres undefined) [Potassium 2-ethylhexanoate] | 137.8 Å² | – | – | – | –
CCCCCCC(=O)O [Heptanoic acid] | 137.3 Å² | – | – | – | –
c1ccc(CNc2ncnc3c2ncn3C2CCCCO2)cc1 (centres undefined) [N-Benzyl-9-(tetrahydro-2H-pyran-2-yl)adenine] | 185.6 Å² | 189.3 Å² | 177.9 Å² | 176.5 Å² | –
CCC(=O)C=Cc1ccc(OC)cc1 [1-(4-Methoxyphenyl)-1-pentene-3-one] | – | – | 143.3 Å² | – | –
CC1=NNC(=O)C1 [3-Methyl-5-pyrazolone] | 117.9 Å² | – | – | 119.1 Å² | –
O=[PH]1Oc2ccccc2-c2ccccc21 (centres undefined) [6H-Dibenzo[c,e][1,2]oxaphosphinine 6-oxide] | 145.8 Å² | – | – | 146.1 Å² | –
COc1ccccc1C=O [2-Methoxybenzaldehyde] | – | – | – | – | collision cross section in nitrogen (ion type: [M+], ion source: APCI, ion mode: Positive): 124.1 Å²
COc1ccc(-c2ccccc2)cc1NNC(=O)OC(C)C [Bifenazate] | – | 185.7 Å² | – | – | –
CCC(C(=O)NC(N)=O)c1ccccc1 (centres undefined) [Ethylphenylacetylurea] | 151 Å² | – | – | – | –
ClCc1cccnc1 [3-(Chloromethyl)pyridine hydrochloride] | – | – | 123.8 Å² | – | –
CCCCOC(=O)N(C)SN(C)C(=O)Oc1cccc2c1OC(C)(C)C2 [Furathiocarb] | – | 195 Å² | 191.3 Å² | 190.5 Å² | –
CCSCc1ccccc1OC(=O)NC [Ethiofencarb] | – | 153.7 Å² | – | – | –
Cc1cc(C(F)(C(F)(F)F)C(F)(F)F)ccc1NC(=O)c1cccc(I)c1C(=O)NC(C)(C)CS(C)(=O)=O [Flubendiamide] | 222.1 Å² | 222.6 Å² | – | – | –
